Columns and labels:
Format in all cases: in vivo
Musca domestics = assay: Experimental Example 3: filter paper test with sucrose bait, death rate of Musca domestics; settings: 500 ppm active ingredient, 0.7 ml on filter paper, 10 female imagoes, after 24 hours, read-out: death rate of the pest
Method: Preparations of the present compounds (1), (2), (3), (4), (5), (6), (8), (9), (10), (11), (12), (13), (14), (15), (16), (17), (18), (19), (21), (22), (23), (24), (25), (26), (27), (31), (34), (35), (36), (37), (38), (39), (40), (42), (47), (50), (52), (54), (66), (67) and (68) obtained according to Formulation Example 5 were diluted with water so that the active ingredient concentration was 500 ppm to prepare experimental pesticidal solutions.
(§1) A filter paper having a diameter of 5.5 cm was spread on the bottom of a polyethylene cup having a diameter of 5.5 cm and 0.7 ml of the experimental pesticidal solution was added dropwise onto the filter paper. As a bait 30 mg of sucrose was uniformly placed on the filter paper. Into the polyethylene cup, 10 female Musca domestics imagoes were released and the cup was sealed with a lid. After 24 hours, the number of surviving Musca domestics was examined and the death rate of the pest was calculated.

Blattalla germanica = assay: Experimental Example 4: filter paper test with sucrose bait, death rate of Blattalla germanica; settings: 144 h; 500 ppm active ingredient, 0.7 ml on filter paper; two male imagoes; after 6 days
Method: Preparations of the present compounds (2), (4), (5), (6), (8), (9), (11), (12), (13), (15), (17), (18), (19), (21), (24), (25), (26), (27), (35), (36), (37), (38), (40), (41), (42), (47), (50), (52), (54), (62), (64), (65), (66) and (68) obtained according to Formulation Example 5 were diluted with water so that the active ingredient concentration was 500 ppm to prepare experimental pesticidal solutions.
as §1, with “two male Blattalla gexmanica images” for “10 female Musca domestics imagoes”, “6 days,” for “24 hours,”, “Blattalla germanica” for “Musca domestics”

Culex pipiens pallens = assay: Experimental Example 5: larvae in treated water, death rate of Culex pipiens pallens; settings: 24 h, active ingredient concentration 3.5 ppm in water, 20 last-instar larvae, after one day, read-out: death rate of the pest
Method: Preparations of the present compounds (1), (2), (4), (5), (6), (8), (9), (11), (12), (13), (14), (15), (16), (17), (18), (19), (21), (22), (23), (24), (25), (26), (27), (31), (33), (34), (35), (36), (37), (38), (39), (40), (42), (43), (47), (48), (50), (52), (53), (54), (62), (64), (65), (66), (67), (68) and (70) obtained according to Formulation Example 5 were diluted with water so that the active ingredient concentration was 500 ppm to prepare experimental pesticidal solutions.
0.7 ml of the experimental pesticidal solution was added to 100 mL of ion-exchanged water (active ingredient concentration: 3.5 ppm). Into the solution, 20 last-instar larvae of Culex pipiens pallens were released. After one day, the surviving number was examined and the death rate of the pest was calculated.

Row | Compound | pest or weed control at 500 ppm (Musca domestics) [%] | pest or weed control at 500 ppm (Blattalla germanica) [%] | pest or weed control at 3.5 ppm (Culex pipiens pallens) [%]
1 | CCC(c1cc(C(F)(F)F)on1)C(C#N)(C#N)CCC(F)(F)F (stereo not drawn) [present compound (37)] | ≥ 90 | 100 | ≥ 95
2 | N#CC(C#N)(CCC(F)(F)F)Cc1cc(C(F)(F)C(F)(F)F)on1 [present compound (38)] | ≥ 90 | 100 | ≥ 95
3 | CC(C)c1cc(CC(C#N)(C#N)CCC(F)(F)F)no1 [present compound (40)] | ≥ 90 | 100 | ≥ 95
4 | CC(c1cc(C(C)(C)C)on1)C(C#N)(C#N)CCC(F)(F)F (stereo not drawn) [present compound (42)] | ≥ 90 | 100 | ≥ 95
5 | N#CC(C#N)(CCC(F)(F)F)Cc1cc(C(F)F)on1 [present compound (47)] | ≥ 90 | 100 | ≥ 95
6 | CC(F)c1cc(CC(C#N)(C#N)CCC(F)(F)F)no1 (stereo not drawn) [present compound (50)] | ≥ 90 | 100 | ≥ 95
7 | CC(F)(F)c1cc(CC(C#N)(C#N)CCC(F)(F)F)no1 [present compound (52)] | ≥ 90 | 100 | ≥ 95
8 | CC(C)(F)c1cc(CC(C#N)(C#N)CCC(F)(F)F)no1 [present compound (54)] | ≥ 90 | 100 | ≥ 95
9 | C=CC(c1cc(C(C)(C)O)on1)C(C#N)(C#N)CCC(F)(F)F (stereo not drawn) [present compound (66)] | ≥ 90 | 100 | ≥ 95
10 | COc1cc(CC(C#N)(C#N)CCC(F)(F)F)on1 [present compound (68)] | ≥ 90 | 100 | ≥ 95

— patent publication US7846956B2, “Malononitrile compound as pesticides” (Sumitomo Chemical Company, Limited, priority 2004, dated 2010)
